US20240261323A1, “PLURI-IONIC COMPLEX FOR THE PREVENTION OR TREATMENT OF NEUROGENIC INFLAMMATION” (OLYS PHARMA SRL, priority 2021, published 2024)

Columns and labels:
[1] = tested on: sensory neurons myelinated by Schwann cells; assay: Toxicity of isolated or combined ions on sensory neurons without cisplatin; format: cell-based, rat; details: Table 1; isolated or combined ions (chlorides), no cisplatin
From the text: (§1) Protocol of the coculture of sensory neurons and Schwann cells: Female rats with 15 days gestation were killed by cervical dislocation (Wistar rats; January Lab) and the fetuses were removed from the uterus. Embryonic DRGs were collected and placed in an icy medium of Leibovitz 15 (L15; PanBiotech, Ref P04-27055, batch: 4590720) containing 2% Penicillin-Streptomycin (PS; PanBiotech, ref: P06-07100, batch: 7390220) and 1% bovine serum albumin (BSA; PanBiotech, Ref: P06-1391100, batch: H200403). DRGs were dissociated by trypsinization for 20 minutes (min) at 37° C. (Trypsin EDTA 1×; PanBiotech, Ref: P10-023100, batch: 3590720). The reaction was stopped by the addition of Dulbecco's modified Eagle medium (DMEM; PanBiotech, Ref: P04-03600, batch: 4080720) containing DNase I grade II (0.1 mg/ml; PanBiotech, Ref: P60-37780100, batch: H181015) and 10% fetal calf serum (FCS; Invitrogen, Ref: 10270106, batch: 2232584). The cells were then mechanically dissociated by 3 passes through a 10 ml pipette. The cells were then centrifuged at 180×g for 10 min at +4° C. on a layer of BSA (3.5%) in medium L15. The supernatant was discarded and the cell pellets were resuspended in a defined culture medium consisting of Neurobasal (Invitrogen, Ref: 21103049, batch: 2176355) supplemented with 2% B27; (Invitrogen, ref: 17504-044, batch: 2193553), L-glutamine (2 mM; PanBiotech, Ref: P04-80100, batch: 3301019), 2% PS and 50 ng/mL NGF (Sigma, Ref: N1408, L batch batch: SLCG1641). The viable cells were then counted in a Neubauer cytometer using the trypan blue exclusion test. The cells were seeded at a density of 12000 cells/wells in 96-well plates (pre-coated with poly-D-lysine; Greiner, Ref: 655940, batch: E20093UL) and have been grown at 37° C. in humidified air (95%)/C02 (5%) atmosphere. Half of the middle was changed every 2 days with fresh middle. The cells are held for 7 to 12 days to allow the proliferation of Schwann cells and sensory neurons. On day 8, the medium is supplemented with 50 μg/mL of ascorbic acid (AA; Sigma, Ref 092902, batch: 05316HJ-438) to initiate the differentiation of Schwann basal cells into myelinating Schwann cells.
The following conditions were tested: • Control medium • Control+cisplatin (12 μM, 24 h) • Pluri-ionic compositions KY21400, KY21310 or KY21200+cisplatin (12 μM, 24 h) • Pluri-ionic compositions KY21400, KY21310 or KY21200 • Control+individual ions at various concentrations • Control+cisplatin (12 μM, 24 h)+individual ions at various concentrations
For the evaluation of the toxicity of individual ions, the cells are fixed after 3 days of treatment. The cells are incubated with an anti-beta-tubulin mouse monoclonal antibody (1/2000, Sigma; Ref T8660-.2 mL; batch: 034M4790V) in a blocking buffer at 4° C. for 12 hours.
The cell nuclei were labeled with a fluorescent marker (Hoechst's solution, Sigma; ref: H-33258, batch: 046M4048V) in the same buffer.
For each condition, 20 images per well were taken using InCell Analyzer™ 2200 (GE Healthcare) with a magnification of 20×. The images of each well of culture were taken under the same conditions. The analysis was performed using Developer software (GE Healthcare). A total of 6 data per experimental condition was provided.
In parallel, the effect of isolated or combined ions two by two on the survival of sensory neurons and the length of neurites was also evaluated under the same conditions. The solutions are all prepared from the chlorides of the ions tested.

[2] = tested on: sensory neurons myelinated by Schwann cells; assay: Neuroprotection on myelinated sensory neuron/Schwann cell coculture, cisplatin poisoning, curative protocol (co-incubation 24 h); format: cell-based, rat
From the text: The in vitro model used is a culture of sensory neurons myelinated by Schwann cells (Callizot et al., 2011, Exp Cell Res 317:2374-2383). This model, miniaturized in 96 wells, makes it possible to analyze the effects of molecules on the development of sensory neurons and on the myelination of axons by Schwann cells.
as §1
Under these conditions, after 5 days of culture with AA, the myelin sheaths are detected with an anti-MAG antibody ([…]), an early marker of myelin. • A. Study of the neuroprotective properties of pluri-ionic compositions on myelinated sensory neurons after Cisplatin poisoning: curative protocol
Cis-diammineplatin (II) dichloride (cisplatin; Sigma, ref: P4394, batch: MKCL0026) was reconstituted in medium at 10 mg/ml (stock solution). The control environment was prepared under the same conditions. After 12 days of culture with AA, the primary sensory neurons were treated for 24 hours with pluri-ionic compositions in the presence or absence of cisplatin poisoning. The cisplatin preparation was used on neurons at a final concentration of 12 μM diluted in control medium for 24 hours of incubation. The pluri-ionic compositions tested are obtained by dissolution in water of lithium chloride, magnesium chloride hexahydrate and potassium chloride, and contain: • 1. KY21400: Li 10.37 mmol/kg, Mg 2.27 mmol/kg, K 16.88 mmol/kg • 2. KY21310: Li 5.76 mmol/kg, Mg 1.26 mmol/kg, K 9.38 mmol/kg • 3. KY21200: Li 1.73 mmol/kg, Mg 0.38 mmol/kg, K 2.81 mmol/kg […]

[3] = tested on: rat myelinated primary sensory neurons; assay: Neuroprotection on rat myelinated primary sensory neurons after cisplatin injury, protection protocol (2 h pretreatment); format: cell-based
From the text: as §1
Cis-diammineplatin (II) dichloride (cisplatin; Sigma, ref: P4394, batch: MKCL0026) was reconstituted in medium at 10 mg/ml (stock solution). The control environment was prepared under the same conditions. […]
The following conditions were assessed: • Control medium • Control+cisplatin (12 μM, 24 h) • Pluri-ionic compositions KY21400, KY21310 or KY21200+cisplatin (12 μM, 24 h) • Pluri-ionic compositions KY21400, KY21310 or KY21200.
This study was carried out with 6 wells per condition and duplicated for validation of the results. The data taken and analyzed are the added results of the 2 studies. […]

[4] = Table 2, isolated ions with cisplatin 12 μM, 24 h
[5] = concentrations ranging from 0.15 mg/kg to 1.2 mg/kg, same conditions
[6] = Table 1, with cisplatin 12 μM, 24 h, composition incubated at the same time
[7] = cisplatin 12 μM, 24 h, composition co-incubated

Row | SMILES | Mean percentage of neurite length relative to control [1] [%] | Mean percentage of sensory neurons number relative to control [1] [%] | Average percentage of neurite length relative to control [2, 4] | Mean percentage of sensory neurons number relative to control [2, 4] | other results
1 | [K+] [K 366 mg/kg = 9.38 mmol/kg] | 115 | 117 | 91% | 58% | –
2 | [Cl-].[Li+] [Li 40 mg/kg = 5.8 mmol/kg] | 77 | 97 | 80% | 66% | –
3 | [Mn+2] [Manganese] | – | – | – | – | effect on neurite length [2, 5]: without demonstrating any significant effect; effect on neuron survival [2, 5]: without demonstrating any significant effect; effect on the myelin sheath length [3, 5]: without demonstrating any significant effect
4 | [Cl-].[Cl-].[Mg+2] [Mg 30.8 mg/kg = 1.27 mmol/kg] | 98 | 108 | – | – | –
5 | N.N.[Cl][Pt][Cl] [cisplatin, Cis-diammineplatin (II) dichloride] | – | – | 63-75% | 51-57% | Mean percentage of neurite length relative to control [2, 6]: 35%; Mean percentage of sensory neurons number relative to control [2, 6]: 39%; Mean percentage of sensory neurons number relative to control ([2]; Table 4, with cisplatin (12 mm, 24 h)): 53.1%; loss of myelin [2, 7]: 78%; loss of neurites [2, 7]: 65%; cell death of sensory neurons (dead cells) ([2]; cisplatin 12 μM, 24 h, composition during the 24 h of cisplatin lesion): 61%; loss of neurites ([3]; cisplatin 12 μM, 24 h): 51%; cell death ([3]; cisplatin 12 μM, 24 h, composition two hours before and during cisplatin injury): 64%; loss of myelin ([3]; cisplatin 12 μM, 24 h, two-hour pre-treatment with composition): 69%
